The values that follow come from ChEMBL document CHEMBL3046567, “Potential applications of violacein: a microbial pigment” (Med Chem Res, 2012).

Test [1] has as its system Mus musculus. The experiment in a line: Inhibition of HCl/ethanol- induced gastric damage in Mus musculus (mouse) at 30 mg/kg. It is filed as functional. As to conditions: Stomach.
Test [2] has as its system Leishmania amazonensis. Kind of test: Antiparasitic activity against Leishmania amazonensis MHOM/BR /77/LTB0016 promastigote at 16.8 uM. It counts as functional.
Test [3] deals with Leishmania amazonensis. The experiment in a line: Antiparasitic activity against Leishmania amazonensis MHOM/BR /77/LTB0016 after 24 hr. As to conditions: MHOM/BR /77/LTB0016, 24 h. It counts as functional, organism-based.
Test [4] has as its system Mus musculus. Kind of test: Inhibition of HCl/ethanol- induced gastric damage in Mus musculus (mouse) at 10 mg/kg, po, sd. As to conditions: Stomach. It counts as functional.
The test system of another test is HEp-2. The experiment in a line: Cytotoxicity against Homo sapiens (human) Hep2 cells. It counts as cell-based.
A short description of test [5]: Cytotoxicity against Macaca mulatta (Rhesus monkey) MA104 cells. It is filed as cell-based.
The test system of a further test is Vero. Kind of test: Cytotoxicity against […] Vero cells. Conditions: Chlorocebus sabaeus. It counts as cell-based.
Test [6] in a line: Cytotoxicity against Macaca mulatta (Rhesus monkey) FRhK4 cells. It is filed as cell-based. As to conditions: FRhK-4.
The next test relates to Enterovirus C. Kind of test: Antiviral activity against Enterovirus C (Poliovirus) infected HeLa cells at 0.063 ug/ml. It is filed as functional.
Another test relates to Trypanosoma cruzi. The experiment in a line: Antitrypanosomal activity against trypomastigote of Trypanosoma cruzi Y infected in albino mouse assessed as reduction in parasitemia at 100 mg/kg, ip for 7 days. Conditions: 168 h, route intraperitoneal. It counts as functional.
For test [7], the system named is Leishmania amazonensis. The experiment in a line: Antiparasitic activity against Leishmania amazonensis MHOM/BR /77/LTB0016 promastigote at 460.8 uM. It is filed as functional.
The subject of the next test is DLD-1. The experiment in a line: Cytotoxicity against Homo sapiens (human) DLD1 cells after 24 to 48 hr by MTT assay. It is filed as functional, cell-based. (In general: Formazan colour is commonly taken as a measure of viable cells.)
The test system of the next test is HCT-116. Kind of test: Cytotoxicity against Homo sapiens (human) HCT116 cells after 24 to 48 hr by MTT assay. It counts as functional, cell-based.
Another test deals with Caco-2. Kind of test: Cytotoxicity against Homo sapiens (human) Caco2 cells after 24 to 48 hr by MTT assay. It is filed as functional, cell-based.
The nature of test [8]: Cytotoxicity against Mus musculus (mouse) EAT cells. It counts as functional, cell-based.
A further test relates to HT-29. The experiment in a line: Cytotoxicity against Homo sapiens (human) HT-29 cells after 24 to 48 hr by MTT assay. It is filed as functional, cell-based.
The nature of test [9]: Cytotoxicity against Homo sapiens (human) Lymphocyte. It is filed as cell-based.
The subject of a further test is U-937. Kind of test: Cytotoxicity against Homo sapiens (human) U937 cells. It is filed as functional, cell-based.
A further test deals with K562. The experiment in a line: Cytotoxicity against Homo sapiens (human) K562 cells. It counts as functional, cell-based.
The next test relates to V79. The experiment in a line: Cytotoxicity against Cricetulus griseus V79 cells. It is filed as functional, cell-based.
For a further test, the system named is HL-60. The experiment in a line: Cytotoxicity against Homo sapiens (human) HL60 cells. It is filed as functional, cell-based.
The subject of a further test is NCI-H460. Kind of test: Cytotoxicity against Homo sapiens (human) NCI-H460 cells. It counts as functional.
The test system of the next test is KM12. Kind of test: Cytotoxicity against Homo sapiens (human) KM12 cells. It is filed as functional.
Another test concerns MOLT-4. The experiment in a line: Cytotoxicity against Homo sapiens (human) MOLT4 cells. It is filed as functional.
The test system of test [10] is Mycobacterium tuberculosis. The experiment in a line: Antimycobacterial activity against Mycobacterium tuberculosis H37Rv. It is filed as functional.

Molecules are shown by their SMILES. In brackets after ≈: the same amount, converted by molar mass. Some results are limits rather than exact numbers.

In the test on Mus musculus [1], `Cc1c(OCC(F)(F)F)ccnc1C[S+]([O-])c1nc2ccccc2[nH]1` (configuration not stated) [LANSOPRAZOLE] came in with an inhibition in vivo at 30 mg/kg of 63%.
Take `N=C(N)c1ccc(OCCCCCOc2ccc(C(=N)N)cc2)cc1` [PENTAMIDINE]: testing at 16.8 µM in the test on Leishmania amazonensis [2] gave an inhibition of 100%. In addition, in the test with Leishmania amazonensis [3], the midpoint of the response, the EC50, lay at 0.46 µM.
For the compound `O=C1NC(c2c[nH]c3ccc(O)cc23)=C/C1=C1\C(=O)Nc2ccccc21` [VIOLACEIN], in the test with Mus musculus [4], the inhibition in vivo at 10 mg/kg worked out at 85%. Besides, the IC50 in the test on HEp-2 is 2.2 µM; in test [5] it was 2.2 µM; in the test on Vero it was 2.2 µM; in test [6], 2.2 µM; with DLD-1, above 1.5 µM; in the test on HCT-116, above 1.5 µM. The IC50 in the test with Caco-2 is above 1.5 µM; in test [8] it was 5 µM; with HT-29, above 1.5 µM; in test [9], 10 µM; with U-937, below 1 µM; in the test on K562, below 1 µM. For the same compound, the IC50 in the test with V79 turned out to be 5 µM; in the test with HL-60, 0.8 µM. Besides, in the test on Enterovirus C, at 0.063 µg/mL the inhibition was 56%. For the same compound, the inhibition in vivo at 100 mg/kg with Trypanosoma cruzi was found to be 4%. The compound further came in with an inhibition at 460.8 µM with Leishmania amazonensis [7] of 100%. It took 4.3 µM to reach a half-maximal effect in the test with Leishmania amazonensis [3] (EC50). The GI50 in the test with NCI-H460, with KM12 and in the test on MOLT-4 was 0.03 µM in each case. In test [10], the MBC is 128 µg/mL (≈ 373 µM). In [10], this compound gave an MIC of 64 µg/mL (≈ 186 µM).

The term inhibition in vivo denotes the drop in the measured response relative to a control, in per cent. A word on the inhibition: it is the change of the read-out against control, counted positive when it falls. Higher therefore signals strong suppression. For orientation: EC50 means the midpoint of the concentration-response curve. Read a low EC50 as greater potency. What is called IC50 is the concentration that gives 50% inhibition. Low values mean inhibition by little substance, high ones a need for much substance. As usually defined, the GI50 is the concentration at which growth is held to half of that of the control. Broadly, the MBC is the smallest concentration meeting the test's criterion for killing. Higher therefore signals weaker bactericidal potency. Usually MIC stands for the lowest concentration that inhibits growth of the organism. Higher therefore signals a less susceptible organism.
